{"source": "paper PMC11939078", "about": "“TAK-994 mechanistic investigation into drug-induced liver injury” (Toxicological Sciences, 2025)", "key": {"Hepatocyte spheroids": {"system": "Hepatocyte spheroids", "experiment": "Hepatocyte spheroid (monoculture, no nonparenchymal cells) cytotoxicity, cellular ATP", "format": "cell-based, human", "experimental": "Toxicology of TAK-994 was assessed using lnSphero’s 3D lnSight Human Liver models, based on N-acetyl-L-cysteine causality assay, glutathione depletion assay, and lipopolysaccharide (LPS)-sensitization assay. Hepatotoxicity was assessed in 7- and 14-day mono and co-culture models, in which cells were exposed to TAK-994 (0.1, 0.3, 1, 3.16, 10, 31.6, or 100 μM) […].\nThe test system was Human 3D InSight Liver Models, production ID hLiMT_589, cryopreserved primary human hepatocytes (Lot IPDH_18; single donor) in monoculture or in co-culture with cryopreserved primary human nonparenchymal cells (Lot IPHN_17; single donor). Human liver microtissues are composed of roughly 1000 hepatocytes and 1000 non-parenchymal live cells. Non-parenchymal liver cell fractions are expected to be composed of Kupffer cells and liver endothelial cells however, these were not identified.\nMono and co-culture model cells were exposed to TAK-994 (0.1, 0.3, 1, 3.16, 10, 31.6, or 100 μM in 0.5% DMSO) for 7 days (TAK-994 administered on Days 0 and 4) or 14 days (TAK-994 administered on Days 0, 5, and 9). Six replicates were tested for each condition. The vehicle control was 0.5% DMSO, and the positive control was chlorpromazine (0.1, 0.3, 1, 3.16, 10, 31.6, or 100 μM in DMSO). Cellular ATP content was measured in the cell lysate on Days 7 or 14 of treatment. LDH release was measured in the cell supernatant on Days 4 and 7 or on Days 5, 9, and 14 and normalized to lysed controls.\nIntracellular ATP content in model lysates was measured with the CellTiter-Glo® 2.0 Cell Viability Assay (Catalogue No. G9243, Promega). The Bioluminescent LDH Release Toxicity Assay Kit (Catalogue No. J2380, Promega) was used to assess extracellular LDH release and normalized to lysed controls. ATP, LDH, GSH, and triglycerides were measured according to internal technical operating procedures."}, "[1]": {"system": "PXB cells (human hepatocytes)", "experiment": "CLF efflux (bile transport) assay in PXB cells", "format": "cell-based", "conditions": "n = 3", "experimental": "Cholyl-lysyl-fluorescein (CLF) efflux for TAK-994 was assessed using human hepatocytes implanted into PXB-mice. PXB cells were exposed to TAK-994 (0.3, 1, 3, 10, 30, and 100 μM) or vehicle for 2 h and then incubated for an additional 30 min with TAK-994 or vehicle containing 5 μM CLF. CLF efflux and its inhibition by TAK-994 were assessed by fluorescence analysis.\nPXB hepatocytes were generated by implanting human hepatocytes into PXB-mice®. These hepatocytes were isolated by collagenase perfusion at PhoenixBio Co Ltd. Freshly isolated hepatocytes were maintained in T-75 flasks and detached using 0.25% trypsin/ethylenediaminetetraacetic acid (EDTA) incubation for 20 minutes (total) using the following procedure. A flash wash was performed with cold trypsin/EDTA, followed by a 5-minute incubation with cold trypsin/EDTA at 37°C, and finally a 15-minute incubation at 37°C with trypsin/EDTA. […]\nOn Day 8, PXB cells were exposed to TAK-994 (0.3, 1, 3, 10, 30, and 100 μM) or 0.1% DMSO for 2 hours and then incubated for an additional 30 minutes with TAK-994 or […] containing 5 μM CLF. […] The CLF efflux and its inhibition by TAK-994 was quantified using Developer toolbox software. […] The fluorescent intensities of bile canalicular regions were measured to determine the IC50 for TAK-994 CLF efflux inhibition. […]"}, "[2]": {"experiment": "Plasma exposure in NT1 patients", "format": "in vivo, human"}, "patients with narcolepsy [3]": {"system": "patients with narcolepsy", "parameters": "method as in Dauvilliers et al. 2023", "conditions": "30, 90 or 180 mg twice daily, 8 wk; ref Dauvilliers et al. 2023; cited from earlier work"}, "patients with narcolepsy [4]": {"system": "patients with narcolepsy", "experiment": "Phase II studies TAK-994-1501 and TAK-994-1504"}}, "data": [{"compound": "CC(C)(O)C(=O)N1CC[C@H](NS(C)(=O)=O)[C@@H]1Cc1cccc(-c2cc(F)cc(F)c2)c1F.CC(C)(O)C(=O)N1CC[C@H](NS(C)(=O)=O)[C@@H]1Cc1cccc(-c2cc(F)cc(F)c2)c1F.O.O.O", "note": "[TAK-994]", "values": [{"measurement": "loss of cellular ATP", "setting": "Hepatocyte spheroids; 100 µM TAK-994, absence of nonparenchymal cells", "value": "~50", "unit": "%"}, {"measurement": "IC50", "setting": "Hepatocyte spheroids; cellular ATP, read-out: IC50, hepatocyte spheroids (Fig. 2B)", "value": "> 100", "unit": "µM"}, {"measurement": "IC50", "setting": "[1]", "value": 30, "unit": "µM"}, {"measurement": "AUC24, ss in NT1 patients", "setting": "[2]; 30 mg BID", "value": "2,920 h*nM"}, {"measurement": "Cmax", "setting": "[2]; 30 mg BID", "value": 408, "unit": "nM"}, {"measurement": "AUC24, ss in NT1 patients", "setting": "[2]; 90 mg BID", "value": "8,870 h*nM"}, {"measurement": "Cmax", "setting": "[2]; 90 mg BID", "value": 948, "unit": "nM"}, {"measurement": "AUC24, ss in NT1 patients", "setting": "[2]; 180 mg BID", "value": "14,800 h*nM"}, {"measurement": "Cmax", "setting": "[2]; 180 mg BID", "value": 1640, "unit": "nM"}, {"measurement": "mean wakefulness time in people with narcolepsy", "setting": "patients with narcolepsy [3]", "value": "effectively increased mean wakefulness time"}, {"measurement": "subjects who met discontinuation criteria due to increases in liver transaminases", "setting": "patients with narcolepsy [4]; 90- and 180-mg BID treatment groups", "value": 8}, {"measurement": "cases that satisfied Hy's Law criteria, diagnosed as DILI", "setting": "patients with narcolepsy [4]; 90 and 180 mg dose groups", "value": 3}]}]}
